According to patent US9567318B2, “Substituted pyrimidine compounds and uses thereof” (Memorial Sloan-Kettering Cancer Center, priority 2009, dated 2017):

How the values were obtained:
MDA-MB-468 cells = test: Propidium iodide staining and flow cytometry (cell cycle, hypodiploid population, TNFα); type: cell-based, human; conditions: YK5 1 μM, TNFα 20 ng/ml
Description: FIG. 12. YK5 affects the major hallmarks of cancer: inhibits proliferation and invasiveness and arrests cancer cells in the cell cycle. (a) The indicated cancer cells were incubated with increasing concentrations of inhibitors and growth over 72 h was assessed. Y-axis values below 0% represent cell death of the starting population. Drugs were assayed in triplicate. (b) Mice (n=5) bearing MDA-MB-468 subcutaneously (s.c.) xenografted tumors that reached a volume of approximately 100-200 mm^3, were administered i.t. YK5 or vehicle as described in Methods. Tumor volume (mm^3) was estimated from caliper measurements. (c) Cells were treated for 24 h with indicated concentrations of YK5. DNA content was analyzed by propidium iodide staining and flow cytometry (left), whereas proteins by western blotting (right). (d) Hsp70 client proteins isolated by YK55-beads from SKBr3 and MDA-MB-468 extracts (500 μg) were analyzed by western blotting. Control beads contain D-biotin (100 μM) attached. (e) MDA-MB-231 breast cancer cells were treated for 24 h with YK5 (1 μM) and protein extracts were subjected to immunoblotting (upper) or pre-treated for 24 h with vehicle or YK5, and viable cells able to migrate through Matrigel over a 20 h period were quantified and data graphed (lower). […]
FIG. 13. […] (a,b) Apoptotic cells were quantified by dual acridine orange/ethidium bromide staining as described in Methods. […]

359 kinases = test: Kinase screen (scanMAX, Ambit); type: binding
Description: FIG. 6. YK5 inhibits core biochemical functions of Hsp70s and disrupts the Hsp90/Hsp70 interaction. a) Refolding of denatured luciferase by Hsc70 and DJA2 at 30° C. was measured for the indicated times in the presence of YK5 (100 μM) or vehicle (left), or at 60 min in the presence of indicated concentrations of YK5 (right). b) Hsc70 ATPase rates were measured for reactions at 30° C. with the indicated combinations of Hsc70 and co-chaperones in the presence of vehicle (DMSO) or YK5 (100 μM). ADP production was monitored by thin layer chromatography separation of radiolabeled ADP from ATP and phosphorimaging analysis (lower). The data are consistent with those obtained from multiple repeat experiments (n≧2). c,d) SKBr3 cells were treated for 24 h with vehicle or indicated concentrations of YK5 (c) or for the indicated times with YK5 (10 μM) (d). Proteins isolated with anti-Hsp90 and Hsp70s antibodies (IP: Hsp90 or Hsp70), or present in the cell extract (Lysate) were analyzed by WB. […] Proteins were applied to a native gel and analyzed by immunoblotting. […]
Kinase Screen. […] The kinase concentration in the eluates was measured by qPCR. KINOMEscan's selectivity score (S) is a quantitative measure of compound selectivity. It is calculated by dividing the number of kinases that bind to the compound by the total number of distinct kinases tested, excluding mutant variants. […]

## C=CC(=O)Nc1cc(N)nc(Sc2c(OC)nc(N3CCN(C)CC3)nc2OC)n1 [YK5, N-(6-amino-2-(4,6-dimethoxy-2-(4-methylpiperazin-1-yl)pyrimidin-5-ylthio)pyrimidin-4-yl)acrylamide]
MDA-MB-468 cells
  apoptotic effect of TNFα: increased the apoptotic effect of TNFα
359 kinases; 10 μM
  activity against 359 kinases: inert
359 kinases; TREEspot interaction map
  c-Met in the kinase screen: potential low affinity kinase hit
